Measurements as given in article PMC9779606, “Synthesis, Structural Characterization and Biological Activity Evaluation of Novel Cu(II) Complexes with 3-(trifluoromethyl)phenylthiourea Derivatives” (International Journal of Molecular Sciences, 2022).
Values after ≈ are worked out from the molar mass of the structure shown.

test system: M. tuberculosis Spec. 210; experiment: Tuberculostatic activity, Microplate Alamar Blue Assay (MABA); format: cell-based, Mycobacterium tuberculosis; details: M. tuberculosis Spec. 210, patient isolate resistant to PAS, INH, ETB, RMP
Protocol: The synthesized compounds were examined in vitro for their tuberculostatic activity using MABA method (Microplate Alamar Blue Assay method). […] The inoculum was prepared from fresh LJ culture in Middlebrook 7H9 Broth medium with OADC, adjusted to a no. 1 McFarland tube, and diluted 1:20. […] Each test compound stock solution was diluted in Middlebrook 7H9 Broth medium with OADC by fourfold, the final highest concentration to be tested. Compounds were diluted serially in sterile 96-well microtiter plates using 100 μL Middlebrook 7H9 Broth medium with OADC. […] A growth control containing no antibiotic and a sterile control without inoculation were also prepared on each plate. The plates were incubated at 37 °C for a week. After the incubation period, 30 μL of Alamar blue solution was added to each well, and the plate was re-incubated for 24 h. Growth is indicated by a color change from blue to pink and the lowest concentration of compound that prevented the color change was noted as its MIC. Isoniazid (INH), Rifampicin (RMP), Streptomycin (SM), and Ethambutol (EMB) as reference drugs were used for comparison.

| Compound | MIC [µg/mL] |
| --- | --- |
| FC(F)(F)c1cccc([N-]C(=S)NCCc2ccccc2)c1.FC(F)(F)c1cccc([N-]C(=S)NCCc2ccccc2)c1.O.[Cu+2] [Cu1, Copper(II) Complex with 1-(2-phenylethyl)-3-[3-(trifluoromethyl)phenyl]thiourea] | 16 |
| FC(F)(F)c1cccc([N-]C(=S)NCc2ccccc2)c1.FC(F)(F)c1cccc([N-]C(=S)NCc2ccccc2)c1.[Cu+2] [Cu3, Copper(II) Complex with 1-benzyl-3-[3-(trifluoromethyl)phenyl]thiourea] | 16 |
| FC(F)(F)c1cccc([N-]C(=S)Nc2cccc(Br)c2)c1.FC(F)(F)c1cccc([N-]C(=S)Nc2cccc(Br)c2)c1.[Cu+2] [Cu4, Copper(II) Complex with 1-(3-bromophenyl)-3-[3-(trifluoromethyl)phenyl] thiourea] | 4 |
| O.O=[N+]([O-])c1cc(NC(=S)[N-]c2cccc(C(F)(F)F)c2)ccc1Cl.O=[N+]([O-])c1cc(NC(=S)[N-]c2cccc(C(F)(F)F)c2)ccc1Cl.[Cu+2] [Cu5, Copper(II) Complex with 1-(4-chloro-3-nitrophenyl)-3-[3-(trifluoromethyl)phenyl]thiourea] | 4 |
| CC(NC(=S)[N-]c1cccc(C(F)(F)F)c1)c1ccccc1.CC(NC(=S)[N-]c1cccc(C(F)(F)F)c1)c1ccccc1.[Cu+2] (racemic) [Cu2, Copper(II) Complex with 1-(1-phenylethyl)-3-[3-(trifluoromethyl)phenyl]thiourea] | 8 |

same assay, conditions: Mycobacterium tuberculosis, M. tuberculosis Spec. 210, patient isolate resistant to PAS, INH, ETB, RMP, read-out: MIC

| Compound | MIC [µg/mL] |
| --- | --- |
| [H]/N=C(/N)N[C@H]1[C@H](O)[C@@H](O)[C@H](O[C@@H]2O[C@@H](C)[C@](O)(C=O)[C@H]2O[C@@H]2O[C@@H](CO)[C@H](O)[C@@H](O)[C@@H]2NC)[C@@H](N/C(N)=N\[H])[C@@H]1O [Streptomycin (SM), Streptomycin, reference compound] | 16 (≈ 27.5 µM) |
| CC[C@@H](CO)NCCN[C@@H](CC)CO [Ethambutol (EMB), Ethambutol, reference compound] | 32 (≈ 157 µM) |
| NNC(=O)c1ccncc1 [Isoniazid (INH), Isoniazid, reference compound] | 16 (≈ 117 µM) |
| CO[C@H]1/C=C/O[C@@]2(C)Oc3c(C)c(O)c4c(O)c(c(/C=N/N5CCN(C)CC5)c(O)c4c3C2=O)NC(=O)/C(C)=C\C=C\[C@H](C)[C@H](O)[C@@H](C)[C@@H](O)[C@@H](C)[C@H](OC(C)=O)[C@@H]1C [Rifampicin (RMP), Rifampicin, reference compound] | 32 (≈ 38.9 µM) |
